Experimental data published in the supplement of paper PMC10307832.

Assays:
Assay in all cases: relative viability (nuclei count vs DMSO), 5 days (fraction); higher = more cells survive
AZD6482 + Alpelisib = compound: Cc1cc([C@@H](C)Nc2ccccc2C(=O)O)c2nc(N3CCOCC3)cc(=O)n2c1 [AZD6482] + Cc1nc(NC(=O)N2CCC[C@H]2C(N)=O)sc1-c1ccnc(C(C)(C)C(F)(F)F)c1 [Alpelisib] (partner 2 µM)
How it was run: (§1)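 Lung cancer cell lines, seeded in 1536-well plates, were treated the following day by pin tool with a single drug or with five library-drug doses (not always all listed) in √10 steps on top of a fixed anchor-drug dose. Cells were fixed and nuclei stained in one step after 5 days, and nuclei were counted. Relative viability is the nuclei count for treated wells divided by that for vehicle wells, reported as medians of duplicate plates.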

[1] = compound: COc1cc2nc(N3CCCN(C)CC3)nc(NC3CCN(Cc4ccccc4)CC3)c2cc1OC + CS(=O)(=O)CCNCc1ccc(-c2ccc3ncnc(Nc4ccc(OCc5cccc(F)c5)c(Cl)c4)c3c2)o1 [Lapatinib] (partner 2 µM)
How it was run: as §1

[2] = compound: COc1cc2nc(N3CCCN(C)CC3)nc(NC3CCN(Cc4ccccc4)CC3)c2cc1OC + CS(=O)(=O)N1CCN(Cc2cc3nc(-c4cccc5[nH]ncc45)nc(N4CCOCC4)c3s2)CC1 [Pictilisib] (partner 1 µM)
How it was run: as §1

AZD6482 + Lapatinib = compound: Cc1cc([C@@H](C)Nc2ccccc2C(=O)O)c2nc(N3CCOCC3)cc(=O)n2c1 [AZD6482] + CS(=O)(=O)CCNCc1ccc(-c2ccc3ncnc(Nc4ccc(OCc5cccc(F)c5)c(Cl)c4)c3c2)o1 [Lapatinib] (partner 2 µM)
How it was run: as §1

Row | Cell Line | relative viability (AZD6482 + Alpelisib; first compound 0.08 µM) | relative viability (AZD6482 + Alpelisib; first compound 0.253 µM) | relative viability (AZD6482 + Alpelisib; first compound 0.8 µM) | relative viability (AZD6482 + Alpelisib; first compound 2.53 µM) | relative viability (AZD6482 + Alpelisib; first compound 8 µM) | relative viability ([1]; first compound 0.2 µM) | relative viability ([1]; first compound 0.6325 µM) | relative viability ([1]; first compound 2 µM) | relative viability ([1]; first compound 6.325 µM) | relative viability ([2]; first compound 0.2 µM) | relative viability ([2]; first compound 0.6325 µM) | relative viability ([2]; first compound 2 µM) | relative viability ([2]; first compound 6.325 µM) | relative viability (AZD6482 + Lapatinib; first compound 0.08 µM) | relative viability (AZD6482 + Lapatinib; first compound 0.253 µM) | relative viability (AZD6482 + Lapatinib; first compound 0.8 µM) | relative viability (AZD6482 + Lapatinib; first compound 2.53 µM) | relative viability (AZD6482 + Lapatinib; first compound 8 µM)
1 | NCI-H1703 | 0.273 | 0.179 | 0.194 | 0.167 | 0.231 | 0.981 | 0.901 | 1.05 | 0.458 | 0.25 | 0.225 | 0.266 | 0.16 | 1.11 | 0.871 | 0.654 | 0.448 | 0.484
2 | PC-3 [JPC-3] | 0.855 | 0.997 | 0.983 | 0.877 | 0.97 | 0.481 | 0.424 | 0.438 | 0.468 | 0.721 | 0.763 | 0.6 | 0.805 | 0.438 | 0.433 | 0.438 | 0.349 | 0.422
3 | BEN | 0.866 | 0.886 | 1.11 | 0.828 | 0.947 | 0.721 | 0.953 | 0.94 | 0.721 | 0.571 | 0.643 | 0.69 | 0.572 | 0.732 | 0.722 | 0.671 | 0.553 | 0.687
4 | NCI-H1666 | 0.609 | 0.748 | 0.751 | 0.64 | 0.738 | 0.508 | 0.746 | 0.475 | 0.332 | 0.547 | 0.424 | 0.579 | 0.275 | 0.283 | 0.616 | 0.556 | 0.517 | 0.417
5 | LC-2-ad | 0.704 | 0.597 | 0.668 | 0.467 | 0.507 | 0.853 | 0.992 | 1.01 | 0.898 | 0.481 | 0.467 | 0.534 | 0.473 | 1.06 | 0.553 | 1.1 | 0.638 | 0.918
6 | SK-LU-1 | – | 0.89 | 0.892 | 0.76 | 0.76 | 0.818 | 0.754 | 1 | 0.839 | 0.702 | 0.604 | 0.559 | 0.401 | – | 0.76 | 0.849 | 0.687 | 0.513
7 | COR-L 105 | 0.771 | 0.837 | 0.784 | 0.517 | 0.728 | 0.395 | 0.424 | 0.322 | 0.278 | 0.349 | 0.435 | 0.34 | 0.327 | 0.382 | 0.326 | 0.351 | 0.364 | 0.355
8 | NCI-H1975 | 0.475 | 0.439 | 0.521 | 0.373 | 0.362 | 0.93 | 0.968 | 1.01 | 0.881 | 0.276 | 0.313 | 0.332 | 0.248 | 0.727 | 0.802 | 0.814 | 0.626 | 0.581
9 | Calu-6 | 0.812 | 0.847 | 0.873 | 0.75 | 0.926 | 1.02 | 0.985 | 1.19 | 0.985 | 0.924 | 0.978 | 0.953 | 0.743 | 1.05 | 1.07 | 1.14 | 0.879 | 0.953
